The record followed here is patent publication US9023789B2, “Amylin analogs and pharmaceutical compositions thereof” (Novo Nordisk A/S, priority 2012, dated 2015).

pIC50: −log10 of the molar value. Where two headings read alike, the source gives them in different places. Numbered stars: 1 amine (or outer) side, 2 acyl side, 3 side chain; on linkers, the order of the positions; unused ones are H or OH. Bridge positions count the residues as written; N and C are the ends. Peptide text beside a SMILES is read from it. * marks the point of attachment. C20 diacid = O=C(O)CCCCCCCCCCCCCCCCCCC(=O)*; γGlu = O=C(O)[C@H](CCC(=O)[*:2])N[*:1]

A short description of data set [1]: ASSAY (IV) determination of solubility. It counts as physicochemical. The procedure, abridged:
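Polypeptide in water at […] mixed 1:1 with 100 mM buffers of pH 3.0-8.0 (glycylglycine pH 3-5, bistrispropane pH 6-8). Held 18 h at room temperature, then centrifuged; concentration remaining in solution measured by UPLC.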

Data set [2] has as its target T1, human amylin receptor (membranes from Amylin 3(a)/CRE-luc cells) (Homo sapiens, UniProt O60896+P30988).
T1 construct: expressed in transfected cells
T1 sequence (P30988 25-474): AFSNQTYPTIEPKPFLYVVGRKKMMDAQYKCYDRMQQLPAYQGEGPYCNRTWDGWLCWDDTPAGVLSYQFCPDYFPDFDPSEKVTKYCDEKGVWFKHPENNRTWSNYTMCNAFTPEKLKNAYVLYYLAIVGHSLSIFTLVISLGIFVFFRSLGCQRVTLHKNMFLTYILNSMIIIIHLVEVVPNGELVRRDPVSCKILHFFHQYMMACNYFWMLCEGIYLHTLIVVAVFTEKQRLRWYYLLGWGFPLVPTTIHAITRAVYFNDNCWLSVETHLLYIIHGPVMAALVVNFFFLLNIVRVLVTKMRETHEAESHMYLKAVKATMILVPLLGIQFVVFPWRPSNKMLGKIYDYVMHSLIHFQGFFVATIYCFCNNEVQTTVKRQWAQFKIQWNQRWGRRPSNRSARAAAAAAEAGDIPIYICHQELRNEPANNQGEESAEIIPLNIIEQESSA
T1 sequence (O60896 24-148 partner): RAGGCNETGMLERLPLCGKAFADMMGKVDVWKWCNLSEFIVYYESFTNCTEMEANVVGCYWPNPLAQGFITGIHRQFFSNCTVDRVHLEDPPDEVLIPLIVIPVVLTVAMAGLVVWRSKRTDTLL
As to the kind of experiment: ASSAY (V) binding to the human amylin receptor (SPA, 125I-rat amylin).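 For all read-outs here: competition binding of cell membranes (35 ng/µL) mixed with SPA beads in 384-well plates at 40 µL total volume, read by scintillation counting.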 As to conditions: for pIC50: Table 4, read-out: hAmylin-R bind IC50.

The mark [3] stands for this setting: bistrispropane buffer, pH 6.5, read-out: Solubility pH 6.5 Concentration.
Where [4] appears, read: bistrispropane buffer, pH 7.5, read-out: Solubility pH 7.5 Concentration.
The mark [5] stands for this setting: bistrispropane buffer, pH 6.0, read-out: Solubility pH 6.0 Concentration.
Setting [6] is: bistrispropane buffer, pH 7.0, read-out: Solubility pH 7.0 Concentration.
[7] abbreviates: bistrispropane buffer, pH 8.0, read-out: Solubility pH 8.0 Concentration.
Where [8] appears, read: glycylglycine buffer, pH 3.0, read-out: Solubility pH 3.0 Concentration.
Where [9] appears, read: glycylglycine buffer, pH 4.0, read-out: Solubility pH 4.0 Concentration.
Where [10] appears, read: glycylglycine buffer, pH 5.0, read-out: Solubility pH 5.0 Concentration.
[11] abbreviates: Table 5, selectivity, hCTR bind IC50 / hAmylin-R bind IC50.
[12] abbreviates: Table 7, human binding selectivity, included for comparison.

For orientation: pIC50 means the negative decadic logarithm of the IC50, by convention in mol/L.

For `CC[C@H](C)[C@H](NC(=O)[C@H](C)NC(=O)CNC(=O)[C@H](Cc1ccccc1)NC(=O)[C@H](CC(N)=O)NC(=O)[C@@H]1CCCN1C(=O)[C@H](CO)NC(=O)[C@H](CO)NC(=O)[C@H](Cc1c[nH]cn1)NC(=O)[C@H](CCCNC(=N)N)NC(=O)[C@H](CC(C)C)NC(=O)[C@H](Cc1ccccc1)NC(=O)[C@H](CCC(=O)O)NC(=O)[C@H](C)NC(=O)[C@H](CC(C)C)NC(=O)[C@H](CCCNC(=N)N)NC(=O)[C@H](CCC(N)=O)NC(=O)[C@@H](NC(=O)[C@H](C)NC(=O)[C@@H]1CSSC[C@H](NC(=O)[C@H](CCCCN)NC(=O)CC[C@H](NC(=O)CCCCCCCCCCCCCCCCCCC(=O)O)C(=O)O)C(=O)N[C@@H](CC(N)=O)C(=O)N[C@@H]([C@@H](C)O)C(=O)N[C@@H](C)C(=O)N[C@@H]([C@@H](C)O)C(=O)N1)[C@@H](C)O)C(=O)N1CCC[C@H]1C(=O)N[C@@H](CO)C(=O)N[C@@H](CO)C(=O)N[C@H](C(=O)N[C@@H](CC(N)=O)C(=O)N[C@H](C(=O)NCC(=O)N[C@@H](CO)C(=O)N[C@@H](CC(=O)O)C(=O)N[C@H](C(=O)N1CCC[C@H]1C(N)=O)[C@@H](C)O)C(C)C)[C@@H](C)O` [Example 11] ({C20 diacid-γGlu}-KCNTATCATQRLAEFLRHSSPNFGAIPSSTNVGSDTP-NH2; disulfide 2-7 (inferred)), the solubility at 18 h in data set [1] (setting [3]), in data set [1] (setting [4]), in data set [1] (setting [5]), in data set [1] (setting [6]), in data set [1] (setting [7]) and in data set [1] (setting [8]) was at least 200 µM each time. In addition, the solubility at 18 h in data set [1] (setting [9]) and in data set [1] (setting [10]) was at least 200 µM each time. Further, in data set [2], the pIC50 was 9.98. Moreover, the “Ratio hCT/hAmylin binding” value in data set [2] (setting [11]) and in data set [2] (setting [12]) was 1.0 in each case.

Turning to `CC[C@H](C)[C@H](NC(=O)[C@H](C)NC(=O)CNC(=O)[C@H](Cc1ccccc1)NC(=O)[C@H](CC(N)=O)NC(=O)[C@@H]1CCCN1C(=O)[C@H](CO)NC(=O)[C@H](CO)NC(=O)[C@H](Cc1c[nH]cn1)NC(=O)[C@H](CCCNC(=N)N)NC(=O)[C@H](CC(C)C)NC(=O)[C@H](Cc1ccccc1)NC(=O)[C@H](CCC(=O)O)NC(=O)[C@H](C)NC(=O)[C@H](CC(C)C)NC(=O)[C@H](CCCNC(=N)N)NC(=O)[C@H](CCC(N)=O)NC(=O)[C@@H](NC(=O)[C@H](C)NC(=O)[C@@H]1CSSC[C@H](NC(=O)[C@H](CCCCN)NC(=O)CC[C@H](NC(=O)CC[C@H](NC(=O)CCCCCCCCCCCCCCCCCCC(=O)O)C(=O)O)C(=O)O)C(=O)N[C@@H](CC(N)=O)C(=O)N[C@@H]([C@@H](C)O)C(=O)N[C@@H](C)C(=O)N[C@@H]([C@@H](C)O)C(=O)N1)[C@@H](C)O)C(=O)N1CCC[C@H]1C(=O)N[C@@H](CO)C(=O)N[C@@H](CO)C(=O)N[C@H](C(=O)N[C@@H](CC(N)=O)C(=O)N[C@H](C(=O)NCC(=O)N[C@@H](CO)C(=O)N[C@@H](CC(N)=O)C(=O)N[C@H](C(=O)N[C@@H](Cc1ccc(O)cc1)C(N)=O)[C@@H](C)O)C(C)C)[C@@H](C)O` [Example 15] ({C20 diacid-γGlu-γGlu}-KCNTATCATQRLAEFLRHSSPNFGAIPSSTNVGSNTY-NH2; disulfide 2-7 (inferred)), the solubility at 18 h in data set [1] (setting [3]), in data set [1] (setting [4]), in data set [1] (setting [5]), in data set [1] (setting [6]), in data set [1] (setting [7]) and in data set [1] (setting [8]) was at least 200 µM in each case. The solubility at 18 h in data set [1] (setting [9]) and in data set [1] (setting [10]) was at least 200 µM throughout. Besides, the pIC50 in data set [2] is 9.22. The “Ratio hCT/hAmylin binding” value in data set [2] (setting [11]) was 26.0; in data set [2] (Table 5a, selectivity, hCTR bind IC50 / hAmylin-R bind IC50) it was 26.0; in data set [2] (Table 5b, selectivity, hCTR bind IC50 / hAmylin-R bind IC50), 26.0; in data set [2] (Table 5c, selectivity, hCTR bind IC50 / hAmylin-R bind IC50) it was 26.0; in data set [2] (setting [12]), 26.0; in data set [2] (Table 7a (preferred compounds), human binding selectivity, included for comparison) it was 26.0. Moreover, in data set [2] (ratio of human calcitonin receptor binding IC50 to human amylin receptor binding IC50), the “Ratio hCT/hAmylin binding” value was found to be 26.0.

On to `CC[C@H](C)[C@H](NC(=O)[C@H](C)NC(=O)CNC(=O)[C@H](Cc1ccccc1)NC(=O)[C@H](CC(N)=O)NC(=O)[C@@H]1CCCN1C(=O)[C@H](CO)NC(=O)[C@H](CO)NC(=O)[C@H](Cc1c[nH]cn1)NC(=O)[C@H](CCCNC(=N)N)NC(=O)[C@H](CC(C)C)NC(=O)[C@H](Cc1ccccc1)NC(=O)[C@H](CCC(=O)O)NC(=O)[C@H](C)NC(=O)[C@H](CC(C)C)NC(=O)[C@H](CCCNC(=N)N)NC(=O)[C@H](CCC(N)=O)NC(=O)[C@@H](NC(=O)[C@H](C)NC(=O)[C@@H]1CSSC[C@H](NC(=O)[C@H](CCCCN)NC(=O)CC[C@H](NC(=O)CCCCCCCCCCCCCCCCCCC(=O)O)C(=O)O)C(=O)N[C@@H](CC(N)=O)C(=O)N[C@@H]([C@@H](C)O)C(=O)N[C@@H](C)C(=O)N[C@@H]([C@@H](C)O)C(=O)N1)[C@@H](C)O)C(=O)N1CCC[C@H]1C(=O)N[C@@H](CO)C(=O)N[C@@H](CO)C(=O)N[C@H](C(=O)N[C@@H](CC(N)=O)C(=O)N[C@H](C(=O)NCC(=O)N[C@@H](CO)C(=O)N[C@@H](CC(N)=O)C(=O)N[C@H](C(=O)N1CCC[C@H]1C(N)=O)[C@@H](C)O)C(C)C)[C@@H](C)O` [Example 8] ({C20 diacid-γGlu}-KCNTATCATQRLAEFLRHSSPNFGAIPSSTNVGSNTP-NH2; disulfide 2-7), for which the solubility at 18 h in data set [1] (setting [3]), in data set [1] (setting [4]), in data set [1] (setting [5]), in data set [1] (setting [6]), in data set [1] (setting [7]) and in data set [1] (setting [8]) was at least 200 µM throughout. The solubility at 18 h in data set [1] (setting [9]) and in data set [1] (setting [10]) was at least 200 µM each time. The pIC50 in data set [2] is 10.14. Besides, the “Ratio hCT/hAmylin binding” value in data set [2] (setting [11]) and in data set [2] (setting [12]) was 0.5 in each case.

`CC[C@H](C)[C@H](NC(=O)[C@H](C)NC(=O)CNC(=O)[C@H](Cc1ccccc1)NC(=O)[C@H](CC(N)=O)NC(=O)[C@@H]1CCCN1C(=O)[C@H](CO)NC(=O)[C@H](CO)NC(=O)[C@H](Cc1c[nH]cn1)NC(=O)[C@H](CCCNC(=N)N)NC(=O)[C@H](CC(C)C)NC(=O)[C@H](Cc1ccccc1)NC(=O)[C@H](CC(=O)O)NC(=O)[C@H](C)NC(=O)[C@H](CC(C)C)NC(=O)[C@H](CCCNC(=N)N)NC(=O)[C@H](CCC(N)=O)NC(=O)[C@@H](NC(=O)[C@H](C)NC(=O)[C@@H]1CSSC[C@H](NC(=O)[C@H](CCCCN)NC(=O)CC[C@H](NC(=O)CCCCCCCCCCCCCCCCCCC(=O)O)C(=O)O)C(=O)N[C@@H](CC(N)=O)C(=O)N[C@@H]([C@@H](C)O)C(=O)N[C@@H](C)C(=O)N[C@@H]([C@@H](C)O)C(=O)N1)[C@@H](C)O)C(=O)N1CCC[C@H]1C(=O)N[C@@H](CO)C(=O)N[C@@H](CO)C(=O)N[C@H](C(=O)N[C@@H](CC(N)=O)C(=O)N[C@H](C(=O)NCC(=O)N[C@@H](CO)C(=O)N[C@@H](CC(N)=O)C(=O)N[C@H](C(=O)N1CCC[C@H]1C(N)=O)[C@@H](C)O)C(C)C)[C@@H](C)O` [Example 10] ({C20 diacid-γGlu}-KCNTATCATQRLADFLRHSSPNFGAIPSSTNVGSNTP-NH2; disulfide 2-7 (inferred)): the solubility at 18 h in data set [1] (setting [3]), in data set [1] (setting [4]), in data set [1] (setting [5]), in data set [1] (setting [6]), in data set [1] (setting [7]) and in data set [1] (setting [8]) was at least 200 µM throughout. Moreover, the solubility at 18 h in data set [1] (setting [9]) and in data set [1] (setting [10]) was at least 200 µM in each case. Besides, in data set [2], the negative-log IC50 (pIC50) was 10.09. Besides, the “Ratio hCT/hAmylin binding” value in data set [2] (setting [11]) and in data set [2] (setting [12]) was 1.2 each time.
